Laboratory results from patent US9114149B2, “[CU(thp)4]n[X]-n compounds for the treatment of a broad range of human solid tumors, including refractory tumors” (Universita Degli Studi Di Padova, priority 2011, dated 2015).
Values joined by “and” are separate entries in the source; they are usually repeats but may differ in a detail not shown here. Equal entries are not always repeated. Marks after values point to notes of the source that are not given here.

Columns and labels:
[1] = system: G361; test: MTT cytotoxicity, G361 (skin); format: cell-based, human; conditions: MTT test, 72 hrs
From the text: (§1) The in vitro antitumor activity of CP had been deeply evaluated in several human cancer cell lines by in vitro cytotoxicity assays. CP cytotoxicity has been detected in a large panel of human cell lines derived from a wide variety of solid tumors, including refractory tumors. In Table 1, the cytotoxicity parameters IC50 (that is the median growth inhibitory concentrations calculated from dose-survival curves via MTT test) are tabulated.
(§2) Cell lines representative of lung (H157, U1810, U1285, Calu-1), pancreas (MIA PaCa-2, BxPC-3, AsPC-1, Capan-1), liver (Huh-7, Hep 3B, SK-Hep-1), oesophagus (OE33, OE21), oesophagus/gastric cardia (OE19), stomach (BGC-823, AGS), colon (HCT-116, T84, COLO 205), breast (MDA-MB-231, SK-BR-3), cervix (CaSki, C-33 A) ovarian (A2780, SK-OV-3, IGROV1), prostate (LnCaP, PC-3) cancers along with melanoma (MEWO, G361, C-32), neuroblastoma (SH-SY5Y, SK-N-AS, IMR-32) and osteosarcoma (U-2 OS, MG-63) have been treated with increasing concentration of CP for 72 hrs.

[2] = system: Calu-1; test: MTT cytotoxicity, Calu-1 (lung); format: cell-based, human; conditions: MTT test, 72 hrs
From the text: as §1, §2

[3] = system: COLO 205; test: MTT cytotoxicity, COLO 205 (colon); format: cell-based, human; conditions: MTT test, 72 hrs
From the text: as §1, §2

[4] = system: C57BL mice; test: Maximum Tolerated Dose in C57BL mice; conditions: single ip administration, <20% weight loss and no animal death
[5] = system: C-32; test: MTT cytotoxicity, C-32 (skin); format: cell-based, human; conditions: MTT test, 72 hrs
From the text: as §1, §2

[6] = system: MG-63; test: MTT cytotoxicity, MG-63 (bone); format: cell-based, human; conditions: MTT test, 72 hrs
From the text: as §1, §2

[7] = system: Capan-1; test: MTT cytotoxicity, Capan-1 (pancreas); format: cell-based, human; conditions: MTT test, 72 hrs
From the text: as §1, §2

[8] = system: human osteosarcoma cells sensitive (U-2 OS); test: Cross resistance MTT test, U-2 OS (CDDP sensitive); format: cell-based; conditions: 72 h, probit analysis
[9] = system: U-2 OS; test: MTT cytotoxicity, U-2 OS (bone); format: cell-based, human; conditions: MTT test, 72 hrs
From the text: as §1, §2

[10] = system: AsPC-1; test: MTT cytotoxicity, AsPC-1 (pancreas); format: cell-based, human; conditions: MTT test, 72 hrs
From the text: as §1, §2

[11] = system: CaSki; test: MTT cytotoxicity, CaSki (cervix); format: cell-based, human; conditions: MTT test, 72 hrs
From the text: as §1, §2

[12] = system: OE33; test: MTT cytotoxicity, OE33 (oesophagus); format: cell-based, human; conditions: MTT test, 72 hrs
From the text: as §1, §2

[13] = system: Lewis lung carcinoma (LLC); test: Early-stage treatment of LLC-bearing mice; format: in vivo, C57BL mice; conditions: for Average tumor weight (mean ± S.D.) / Inhibition of tumor growth: early-stage; for Average tumor weight (mean ± S.D.): day 15; for Inhibition of tumor growth: day 15, referred to control
Description: Body weight was measured every two days and was taken as a parameter of systemic toxicity. The X axis indicates the days after transplantation whereas the Y axis indicates the percentage of body weight changes. […] The error bars indicate the SD.
The antitumor efficacy of CP was evaluated in a model of solid tumor, the syngeneic murine Lewis Lung Carcinoma (also indicated as LLC). […] Body weight of tumor-bearing mice has been measured every two days simultaneously with antitumor analyses and was taken as a parameter of systemic toxicity.
LLC was implanted intramuscularly (i.m., 2×10^6 cells inoculum) into the right hind leg of 8-week old inbred C57BL mice (24±3 g body weight) and, after 24 h from tumor implantation, mice were randomly divided into five groups (8 animals per group, 10 controls). CP was dosed at 25, 35 and 50 mk/kg i.p. on days 3, 5, 7, 9, 11 and 13 after tumor implantation. […] At day 15, animals were sacrificed, and the inhibition of tumor growth was evaluated.

[14] = system: human ovarian adenocarcinoma cells sensitive (A2780); test: Cross resistance MTT test, A2780 (CDDP sensitive); format: cell-based; conditions: 72 h, probit analysis
[15] = system: C-33 A; test: MTT cytotoxicity, C-33 A (cervix); format: cell-based, human; conditions: MTT test, 72 hrs
From the text: as §1, §2

[16] = system: SK-Hep-1; test: MTT cytotoxicity, SK-Hep-1 (liver); format: cell-based, human; conditions: MTT test, 72 hrs
From the text: as §1, §2

[17] = system: L1210 murine leukemia; test: Antitumor efficacy in murine leukemia; format: in vivo; conditions: established animal leukaemia
Description: (§3) The detection of drug uptake by tumor cells in animal models clearly attest that CP efficiently and selectively accumulates in the solid tumor mass.
The antitumor efficacy of CP was evaluated in L1210 murine leukemia and in mouse Lewis Lung carcinoma (LLC).

[18] = system: human colon adenocarcinoma cells resistant (HCT-116 OXP) to OXP
[19] = system: human cancer versus human normal cells
[20] = system: human colon adenocarcinoma cells sensitive (HCT-116); test: Cross resistance MTT test, HCT-116 (OXP sensitive); format: cell-based; conditions: 72 h, probit analysis
[21] = system: C57BL mice; test: Acute toxicity tests in healthy C57BL mice; format: in vivo; conditions: observed 24 hrs
Description: The acute toxicity was assessed by treating BALB/c or C57BL mice with a single intraperitoneal (i.p.) or endovenous (e.v.) administration of different amounts, i.e. 3.125, 6.25, 12.5, 25, 50, 100 and 200 mg/kg of tested compounds.
To preliminarily establish the toxicity profile of CP, acute and repeat-dose toxicity studies were performed in BALB/c mice and in C57BL mice.

[22] = system: human leukemic cell lines; test: Cytotoxicity against human leukemic cell lines; format: cell-based; conditions: several human leukemic cell lines
From the text: as §3

[23] = 1.5 mg/kg ip days 3, 5, 7, 9, 11, 13
[24] = human non-tumor versus malignant cells
[25] = 35 mg/kg ip days 3, 5, 7, 9, 11, 13
[26] = 50 mg/kg ip days 3, 5, 7, 9, 11, 13

N.N.[Cl][Pt][Cl] [CDDP, cis-diamminodichloro platinum(II)]
IC50 [1]: 1320 ± 1010 nM
IC50 [2]: 9650 ± 2130 nM
IC50 [3]: 33100 ± 2680 nM
MTD (Maximum Tolerated Dose) [4]: 4.8 mg/kg
IC50 [5]: 1060 ± 980 nM
IC50 [6]: 5760 ± 1010 nM
IC50 [7]: 9810 ± 1380 nM
IC50 [8]: 5900 ± 1400 nM
IC50 [9]: 5150 ± 1940 nM
IC50 [10]: 29500 ± 1570 nM
IC50 [11]: 31100 ± 2970 nM
IC50 [12]: 6870 ± 1060 nM
body weight loss ([13]; early-stage LLC mice, 1.5 mg/kg, after the sixth administration (FIG. 1)): about 30%
Average tumor weight (mean ± S.D.) [13, 23]: 0.168 ± 0.10 g
Inhibition of tumor growth [13, 23]: 73.66%
IC50 [14]: 2430 ± 1600 nM
IC50 [15]: 7420 ± 1980 nM
IC50 [16]: 27100 ± 2940 nM

F[P-](F)(F)(F)(F)F.OC[P+](CO)(CO)[Cu-3]([P+](CO)(CO)CO)([P+](CO)(CO)CO)[P+](CO)(CO)CO [CP, [Cu(thp)4][PF6]]
antitumor efficacy against animal leukaemia [17]: failed to show significant antitumor efficacy
IC50 [1]: 980 ± 120 nM
IC50 [2]: 910 ± 450 nM
IC50 [3]: 650 ± 30 nM
MTD (Maximum Tolerated Dose) [4]: 25.6 mg/kg
IC50 [5]: 560 ± 430 nM
IC50 [6]: 1430 ± 740 nM
IC50 [7]: 2430 ± 840 nM
IC50 [8]: 3100 ± 1100 nM
IC50 [9]: 1340 ± 920 nM
IC50 [10]: 1550 ± 730 nM
IC50 [11]: 3160 ± 1450 nM
IC50 ([18]; HCT-116 OXP (OXP resistant), MTT test, 72 h, probit analysis): 1900 ± 700 nM
R.F. (Resistant factor) ([18]; IC50 resistant/parent line: HCT-116 OXP / HCT-116): 1.4
Selectivity index (SI) ([19]; average IC50 towards normal cells divided by average IC50 for the malignant cells): 32.4
SI fold higher than CDDP [19, 24]: about 2 fold
SI fold higher than OXP [19, 24]: ~3 fold
IC50 [12]: 1870 ± 590 nM
body weight loss compared with the non-treated group ([13]; early-stage LLC mice, even at the highest doses (FIG. 1)): no significant body weight loss
Average tumor weight (mean ± S.D.) ([13]; 25 mg/kg ip days 3, 5, 7, 9, 11, 13): 0.473 ± 0.12 g
Inhibition of tumor growth ([13]; 25 mg/kg ip days 3, 5, 7, 9, 11, 13, 25 mg/kg): 26% and 25.86%
Average tumor weight (mean ± S.D.) [13, 25]: 0.273 ± 0.04 g
Inhibition of tumor growth [13, 25]: 57.21%
Average tumor weight (mean ± S.D.) [13, 26]: 0.113 ± 0.04 g
Inhibition of tumor growth [13, 26]: 82.28%
IC50 [14]: 1800 ± 400 nM
IC50 [20]: 1400 ± 500 nM
LD50 ([21]; single e.v. administration): 115^b mg/kg
LD50 ([21]; single i.p. administration): 125^a mg/kg
IC50 [15]: 3260 ± 1570 nM
IC50 [16]: 860 ± 750 nM
cytotoxicity against human leukemic cell lines [22]: high cytotoxicity
